# In patent publication US4594238A (Regents of University of Minnesota, priority 1984, dated 1986):
# Entries after “also recorded” stand apart in the source; their conditions may differ.
# Experiments:
# [1] = tested on: thyroid hormone production; conditions: cited from earlier work
# Pt/DNA complexes = conditions: cited from earlier work
# [2] = thiourea administered prior to the platinum (II); cited from earlier work
# [3] = Reduction of toxicity (including bone marrow toxicity) of platinum compounds, Example 4; format: in vivo; conditions: platinum compounds of drawing 16, X=OH or H2O
# Rat mammary tumor 13762 = assay: Comparative tumor response to DDP with and without NaDDTC rescue, Example 2; format: in vivo, Female F344 (Fischer) rats
# Method: (§1) Female F344 (Fischer) rates, initial weight 100-150 g, were obtained from the Charles River Breeding Laboratory, Wilmington, MA. They were housed in methacrylate cages and given Purina rat chow and water ad libitum for at least one week. Lean weight of the rats were 150 g at the onset of experiments unless otherwise noted.
# (§2) Mammary Tumor 13762 was obtained in the form of an implanted tumor in a female F344 rat. All intravenous injections were carried out under brief ether anesthesia.
# Tumor inoculation was carried out as follows: two rats bearing tumors having a mean diameter of 2.5-3.5 cm were sacrificed using ether anesthesia. The tumors were excised immediately, finely minced, combined, and resuspended in 20-40 ml of normal saline. This suspension was filtered through a gauze pad to remove coarse pieces of tissue and the resulting suspension inoculated subcutaneously (0.2-0.5 ml/injection) into the left flank of each rat.
# [4] = Protection of rats against DDP toxicity by i.p. NaDDTC (BUN, weight loss, diarrhea, histopathology), Example 1 / Table 1; format: in vivo, Male F344 (Fischer) rats; conditions: for Incidence of Diarrhea: DDP […] i.v.; for BUN / Weight Loss: Day 5, DDP […] i.v.
# From the text: Male F344 (Fischer) rats (average weight, 150 g) were obtained from the Charles River Breeding Laboratory. They were divided into groups of four rats, placed in methacrylate cages, and given National Institute of Health chow for rodents and water ad lib, for 7 days. Average weight of the rats was 180 g (range, 160-200 g) when injected.
# Tetraethylthiuram disulfide (disulfiram) was obtained from Sigma Chemical Co., St. Louis MO. […] Trav. Chim. 70:917 (1951); immediately prior to injection, it was dissolved in sterile water at a concentration of 100 mg/ml. Sodium bicarbonate was prepared in sterile water at a concentration of 50 mg/ml. All injections were carried out under brief ether anesthesia.
# Otherwise, weight and BUN were determined at 5 days after injection, reportedly the time of maximal observed toxicity. Evidence of gastrointestinal toxicity was obtained qualitatively by noting the presence or absence of diarrhea 3-5 days after injection.
# Randomly selected animals were sacrificed at 5 days after injection for study of histopathologic changes in the kidney and to note the presence or absence of hemorrhagic enteritis. Kidneys were removed, placed in Zenker's fixative, embedded in paraffin, sectioned at 6 μm, and stained with hematoxylin and eosin.
# [5] = Comparative nephrotoxicity: low-dose i.v. vs high-dose i.p. NaDDTC rescue after DDP, Example 2; format: in vivo, Female F344 (Fischer) rats; conditions: for Kidney sections / Day 5 BUN (mean ±SEM) / Diarrhea / Weight loss on day 5: DDP 6 mg/kg i.v.
# Method: as §1, §2
# [6] = DDP 2 mg/kg i.v., NaDDTC 100 mg/kg i.v.
# [7] = DDP 2 mg/kg, DDTC 750 mg/kg ip 2 hours later
# [8] = DDP 8 mg/kg with DDTC rescue 750 mg/kg ip
# [9] = DDTC 500 mg/kg ip 1/2 hour after DDP, n=4
# [10] = DDTC 500 mg/kg ip 1 hour after DDP, n=4
# [11] = DDTC 500 mg/kg ip 2 hours after DDP, n=4
# [12] = DDTC 750 mg/kg ip 0 hours after DDP, n=12
# [13] = DDTC 750 mg/kg ip 3/4 hour after DDP, n=5
# [14] = DDTC 750 mg/kg ip 1 hour after DDP, n=16
# [15] = DDTC 750 mg/kg ip 2 hours after DDP, n=14
# [16] = DDTC 750 mg/kg ip 3 hours after DDP, n=10
# [17] = DDTC 750 mg/kg ip 4 hours after DDP, n=7
# [18] = DDTC 750 mg/kg ip 6 hours after DDP, n=5
# [19] = DDTC 750 mg/kg ip at -1/2 hour (30 minutes before DDP), n=4
# [20] = DDTC 750 mg/kg ip, rescue time printed 11/2 hours after DDP, n=15
# [21] = NaDDTC administered between 1 and 4 hours after DDP
# [22] = NaDDTC immediately after DDP (time=0 hour)
# [23] = NaDDTC 100 mg/kg i.v. 2 hours after DDP
# [24] = NaDDTC 750 mg/kg i.p. 2 hours after DDP
structure (smiles),measurement,setting,value
NC(N)=S [thiourea],Inhibition of thyroid hormone production,[1],reported to inhibit thyroid hormone production
same,Reversal of Pt/DNA complexing,Pt/DNA complexes,does reverse Pt/DNA complexing
same,Efficacy of platinum (II),[2],Decreased efficacy of platinum (II)
"CCN(CC)C(=S)[S-].[Na+] [DDTC, sodium diethyldithiocarbamate]",Reducing the toxicity (including bone marrow toxicity) of platinum compounds,[3],effective in reducing the toxicity (including bone marrow toxicity)
same,Adverse effects on tumor response to DDP,Rat mammary tumor 13762; [6],no adverse effects
same,"Initial response, control vs intravenous rescue group",Rat mammary tumor 13762; [6],Initial response was identical in both groups
same,Rats with relapse between days 25 and 30,"Rat mammary tumor 13762; DDP 2 mg/kg i.v., NaDDTC 100 mg/kg i.v. 2 hours after DDP, n=8",2/8
same,Other (non-relapsed) rats through day 50,"Rat mammary tumor 13762; DDP 2 mg/kg i.v., NaDDTC 100 mg/kg i.v., n=8",essentially free of tumor through day 50
same,"Minimum tumor diameter, day 23","Rat mammary tumor 13762; DDP 2 mg/kg i.v., NaDDTC 750 mg/kg i.p. 2 hours after DDP, n=11",1.3 cm
same,Rats with relapse by day 30,"Rat mammary tumor 13762; DDP 2 mg/kg i.v., NaDDTC 750 mg/kg i.p., n=11",9/11
same,Mean tumor diameter by day 30,"Rat mammary tumor 13762; DDP 2 mg/kg i.v., NaDDTC 750 mg/kg i.p., relapsed rats",2.2 cm
same,Disappearance of tumor,Rat mammary tumor 13762; [7],disappearance of tumor was not observed
same,Initial response versus unrescued group,Rat mammary tumor 13762; [7],identical to that of the unrescued group
same,Mean minimum tumor diameter at day 21,Rat mammary tumor 13762; [7],1.2 cm
same,Mean tumor diameter at day 30,Rat mammary tumor 13762; [7],3.0 cm
same,Relapse and subsequent tumor growth versus no rescue,Rat mammary tumor 13762; [7],earlier onset of relapse and more rapid subsequent tumor growth
same,Deaths,Rat mammary tumor 13762; [8],no deaths
same,Tumor-free rats by day 28,Rat mammary tumor 13762; [8],1/8
same,Initial tumor response with or without NaDDTC rescue,"Rat mammary tumor 13762; DDP 2, 4, and 8 mg/kg, NaDDTC 750 mg/kg ip",identical with or without NaDDTC rescue
same,Tumor response at DDP 4 and 8 mg/kg versus 2 mg/kg,"Rat mammary tumor 13762; DDP 4 and 8 mg/kg, DDTC rescue 750 mg/kg ip",Qualitatively similar results
same,Local recurrence and tumor growth,Rat mammary tumor 13762; NaDDTC 750 mg/kg ip,locally recurring tumors recur earlier and grow more rapidly; also recorded: local recurrence commenced earlier and tumors grew more rapidly
same,Effect of ip rescue on initial tumor response,Rat mammary tumor 13762; ip route of rescue,does not seem to have any significant adverse effect upon initial tumor response
same,Incidence of Diarrhea,[4]; DDTC 750 mg/kg ip 0 hours after DDP,0/6
same,Incidence of Diarrhea,[4]; DDTC 750 mg/kg ip 3/4 hour after DDP,0/5
same,Incidence of Diarrhea,[4]; DDTC 750 mg/kg ip 1 hour after DDP,0/8
same,Incidence of Diarrhea,[4]; DDTC 750 mg/kg ip 2 hours after DDP,0/14
same,Incidence of Diarrhea,[4]; DDTC 750 mg/kg ip 6 hours after DDP,2/5
same,Incidence of Diarrhea,"[4]; DDTC 750 mg/kg ip 6 hours after DDP, listed as NaDDTC",two of the five
same,BUN,[4]; [9],152 ± 20 mg/dL
same,Weight Loss,[4]; [9],4 ± 2%
same,BUN,[4]; [10],90 ± 5 mg/dL
same,Weight Loss,[4]; [10],4 ± 1%
same,BUN,[4]; [11],72 ± 11 mg/dL
same,Weight Loss,[4]; [11],2 ± 2%
same,BUN,[4]; [12],214 ± 21 mg/dL
same,Weight Loss,[4]; [12],9 ± 1%
same,BUN,[4]; [13],56 ± 9 mg/dL
same,Weight Loss,[4]; [13],8 ± 2%
same,BUN,[4]; [14],63 ± 4 mg/dL
same,Weight Loss,[4]; [14],13 ± 1%
same,BUN,[4]; [15],95 ± 9 mg/dL
same,Weight Loss,[4]; [15],15 ± 1%
same,BUN,[4]; [16],77 ± 8 mg/dL
same,Weight Loss,[4]; [16],10 ± 1%
same,BUN,[4]; [17],106 ± 8 mg/dL
same,Weight Loss,[4]; [17],14 ± 1%
same,BUN,[4]; [18],209 ± 44 mg/dL
same,Weight Loss,[4]; [18],18 ± 2%
same,BUN,[4]; [19],418 ± 43 mg/dL
same,Weight Loss,[4]; [19],18 ± 1%
same,BUN,[4]; [20],62 ± 3 mg/dL
same,Weight Loss,[4]; [20],5 ± 1%
same,Reduction in BUN or weight loss,[4]; NaDDTC 6 hours after DDP,failed to demonstrate significant reduction either in BUN or weight loss
same,Rescue efficacy,[4]; NaDDTC 6 hours after DDP,only minimal rescue efficacy (if any)
same,Diarrhea,[4]; [21],Diarrhea was not observed
same,"Kidney sections, histopathology",[4]; [21],barely discernible pale band of mild tubule degeneration in the outer zone of the outer medullary stripe
same,"Necropsy, small intestine",[4]; [21],grossly normal small intestine
same,Reduction in BUN and weight loss,[4]; [21],Marked reduction
same,Decrease in weight loss,[4]; [22],significant decrease in weight loss
same,Reduction of BUN levels,[4]; [22],without reduction of BUN levels
same,Protection from nephrotoxic effects of DDP,"[4]; NaDDTC ip 500-750 mg/kg, DDP doses as high as 8 mg/kg",would afford protection from the nephrotoxic effects of DDP
same,Kidney sections,[5]; NaDDTC 100 mg/kg i.v.,mild hydropic changes with occasional evidence of degeneration
same,Day 5 BUN (mean ±SEM),[5]; [23],43±5 milligrams per deciliter
same,Diarrhea,[5]; [23],not observed
same,Weight loss on day 5,[5]; [23],14%
same,Kidney sections,[5]; NaDDTC 750 mg/kg i.p.,mild hydropic changes with occasional evidence of degeneration
same,Day 5 BUN (mean ±SEM),[5]; [24],73±4 milligrams per deciliter
same,Diarrhea,[5]; [24],not observed
same,Weight loss on day 5,[5]; [24],9%
same,Inhibition of platinum-induced nephrotoxicity,[5]; administered intravenously,effectively inhibit platinum-induced nephrotoxicity without deleterious effects on tumor response
same,"Protection against nephrotoxicity, intravenous vs intraperitoneal",[5]; low-dose i.v. vs. high-dose i.p. DDTC rescue,essentially equivalent for both routes
